Reference: ChEMBL document CHEMBL1127176, “Restricted rotation analogs of S-adenosylmethionine: synthesis, evaluation as inhibitors of S-adenosylmethionine decarboxylase, and potential use as selective antitrypanosomal agents” (Bioorg Med Chem Lett, 1993)

Legend:
L1210 = assay: Tested for the ability to traverse cell membranes and to alter ratio of AdoMet to S-adenosyl-homocysteine (AdoHcy) in L1210 murine lymphocytic leukemia cells; IA means inactive; assay type: functional, cell-based, Mus musculus
Trypanosoma brucei = assay: Tested for antitrypanosomal activity against blood forms of Trypanosoma uM concentration; assay type: functional
HT-29 = assay: Tested for the ability to traverse cell membranes and to alter ratio of AdoMet to S-adenosyl-homocysteine (AdoHcy) in HT-29 human colon carcinoma; IA means inactive; assay type: functional, cell-based
HL-60 = assay: Tested for the ability to traverse cell membranes and to alter ratio of AdoMet to S-adenosyl-homocysteine (AdoHcy) in HL60 human promyelocytic leukemia cells; assay type: functional, cell-based

Compound | IC50 (L1210) | IC50 (HT-29) | IC50 (HL-60) [µM] | Inhibition (Trypanosoma brucei) [%]
Nc1ncnc2c1ncn2[C@@H]1O[C@H](CSC2CCNC2)[C@@H](O)[C@H]1O.O=S(=O)(O)O (stereo partly drawn) | – | – | – | 40
C[S+](C[C@H]1O[C@@H](n2cnc3c(N)ncnc32)[C@H](O)[C@@H]1O)C1CCNC1.O=S(=O)(O)O.O=S(=O)([O-])O (stereo partly drawn) | – | – | – | 49
Nc1ncnc2c1ncn2[C@@H]1O[C@H](CS[C@@H]2CN[C@H](C(=O)O)C2)[C@@H](O)[C@H]1O.O=S(=O)(O)O | – | – | > 1000 | 30
Nc1ncnc2c1ncn2[C@@H]1O[C@H](CS[C@H]2CN[C@H](C(=O)O)C2)[C@@H](O)[C@H]1O.O=S(=O)(O)O | – | – | > 1000 | 41

The next lines start with results.

IC50 (L1210) | IC50 (HT-29) | IC50 (HL-60) [µM] | Compound | Inhibition (Trypanosoma brucei) [%]
Not Active | Not Active | – | C[S+](C[C@H]1O[C@@H](n2cnc3c(N)ncnc32)[C@H](O)[C@@H]1O)C1C=C[C@H](N)C1.O=S(=O)(O)O.O=S(=O)([O-])O (stereo partly drawn) | 50
– | – | > 1000 | C[S+](C[C@H]1O[C@@H](n2cnc3c(N)ncnc32)[C@H](O)[C@@H]1O)[C@H]1CN[C@H](C(=O)O)C1.O=S(=O)(O)O.O=S(=O)([O-])O (stereo partly drawn) | 34
– | – | > 1000 | C[S+](C[C@H]1O[C@@H](n2cnc3c(N)ncnc32)[C@H](O)[C@@H]1O)C1CN[C@H](C(=O)O)C1.O=S(=O)(O)O.O=S(=O)([O-])O (stereo partly drawn) | 64
